Measured values from ChEMBL document CHEMBL1151984, “Dietary derived sesquiterpenes from Phyllodesmium lizardensis” (J Nat Prod, 2009).
Activity calls are given as the source filed them.

Experiments:
Assay type in all cases: functional, organism-based
[1] = test system: Priestia megaterium; assay: Antibacterial activity against Bacillus megaterium at 50 ug/disk
[2] = test system: Mycotypha microspora; assay: Antifungal activity against Mycotypha microspora at 50 ug/disk
[3] = test system: Escherichia coli; assay: Antibacterial activity against Escherichia coli at 50 ug/disk
[4] = test system: Aspergillus ruber; assay: Antifungal activity against Eurotium rubrum at 50 ug/disk
[5] = test system: Microbotryum violaceum; assay: […] activity against Microbotryum violaceum at 50 ug/disk

Measured: Activity

CC1=C[C@@H]2[C@@H](C(C)C)CC=C(C)[C@@H]2C[C@H]1O
inactive: all assays above

CC(=O)O[C@@H]1C[C@H]2C(C)=CC[C@H](C(C)C)[C@H]2C=C1C
inactive: all assays above
